Data set [1] relates to formation of TNF-α in cell strain RAW 264.7. Briefly: Activity for inhibiting the formation of TNF-α in vitro (RAW 264.7 cells, ELISA). To be noted: Mus musculus, RAW264.7, control 100, LPS 100 ng/ml, 24 hours, read-out: Ratio of formed amount of TNF-α. It is filed as cell-based. The method, then:
[Evaluation test of activity for inhibiting the formation of TNF-α in vitro]
Pyrimidine derivative obtained in Example 1 was used as test compound.
Cell strain RAW 264.7 (ATCC) derived from the macrophage of mouse was placed on each one of the wells on a microplate having 24-wells so as to put the cells in an amount of 3×10^5 cells/U (well). The cells were incubated for 24 hours in a phenol red free-RPMI-1640 culture medium (mfd. by GIBCO) to which 10% of equine serum (mfd. by Bio Whittaker), 100 U/ml of penicillin (mfd. by Dainippon Pharmaceutical Co., Ltd.) and 100 μg/ml of streptomycin (mfd. by Dainippon Pharmaceutical Co., Ltd.) were added.
Next, the equine serum was removed from the culture medium, and the reference culture medium as control was prepared by adding 2 mM of L-arginine (mfd. by Wako Pure Chemical Industries, Ltd.), 10 μM/ml of tetrahydrobiopterin (mfd. by ALEXIS) and 100 ng/ml of lipopolysaccharide (LPS)(mfd. by Sigma Chemical Co.) to a phenol red free-RPMI-1640 culture medium, so as to induce the formation of TNF-α.
On the other hand, the test culture medium, containing the test compound of Example 1 was prepared similarly as in the reference culture medium, except adding the test compound (1×10^-4, 1×10^-5 and 1×10^-6 M) dissolved in dimethyl sulfoxide (DMSO) at the same time of LPS-addition.
The concentration of TNF-α formed in the supernatant of each one of the culture media after 24 hour-incubation was measured by Factor-Test-X Mouse TNF-α ELISA Kit (mfd. by genzyme).
On the technique in general: ELISA stands for enzyme-linked immunosorbent assay.

Data set [2] can be described thus: MTT assay, index of toxicity for A 549 cells. It is filed as cell-based. The conditions noted are these: human, a549 cells, control 100.0, read-out: Ratio of optical absorbance. The procedure: Test was conducted in accordance with the method as described in J. Immunol. Methods, Vol. 94, pp. 57-68, (1986). Cell strain RAW 264.7 derived from the macrophage of mouse was incubated similarly as in the method of Test Example 1(1). After that, MTT reagent (5 mg/ml) in 1/10 amount of the culture medium was added to the cells, and incubated for 4 hours. The supernatant of culture medium was taken off, then the cells were collected by using 1% SDS solution and the optical absorbance at 570-630 nm of the SDS solution was measured.
Cell strain A 549 (ATCC) derived from human alveolar epithelium cells was placed on each one of the wells on a microplate having 24-wells so as to put the cells in an amount of 3×10^5 cells/U (well). The cells were incubated for 24 hours in F-12 Nutrient Mixture culture medium (mfd. by GIBCO) to which 10% of equine serum, 100 U/ml of penicillin (mfd. by Dainippon Pharmaceutical Co., Ltd.) and 100 μg/ml of streptomycin (mfd. by Dainippon Pharmaceutical Co., Ltd.) were added.
On the other hand, the test culture medium, containing the test compound of Example 1 was prepared similarly as in the reference culture medium, except adding the test compound (1×10^-5, 1×10^-6 and 1×10^-7 M) dissolved in dimethyl sulfoxide (DMSO) at the same time of inducers-addition.
The concentration of IL-8 formed in the supernatant of each one of the culture media after 24-hour incubation was measured by IL-8 ELISA Kit Human (mfd. by genzyme). Further, MTT assay was conducted by the similar method as described in Text Example 2 to determine the index of toxicity for cells.
In general terms: Tetrazolium dyes change colour on reduction, which living cells bring about.

The next data set concerns late asthmatic response. Briefly: Model experiment of asthma in guinea pigs (inhibition of late asthmatic response). It is filed as in vivo, guinea pig. To be noted: 10 mg/Kg orally 30 minutes before antigen; 6 animals; control 112 ± 17.8. The procedure: [Model experiment of asthma in guinea pigs. (Inhibition of late asthmatic response)]
Hartley strain female guinea pigs (SLC) having the body weight of about 350 g were used and 50 mg/Kg of cyclophosphamide (mfd. by Sigma Chemical Co.) was injected intraperitoneally. 2 Days after this pretreatment by injection, 1 mg of egg albumin (mfd. by Sigma Chemical Co.) and 100 mg of aluminum hydroxide (Wako Pure Chemical Industries Co., Ltd.) were injected intraperitoneally for sensitization. 3 Weeks after the sensitization, 10 μg of egg albumin and 100 mg of aluminum hydroxide were injected intraperitoneally for booster sensitization. 6 Weeks after the primary sensitization, asthma attach was induced by inhalation and exposure to egg albumin (4 mg/ml) by using a nebulizer (NE-U12: mfd. by Omron Corp.). The asthma reaction was determined by use of a body-plethysmography (using system developed by Uchida lecturer in internal department for respiratory organs at Tsukuba University; air-resist tube, respiratory amplifier and differential pressure transducer (mfd. by Nihon Koden); and osciloscope (mfd. by Iwasaki Tsushin)), so as to determine a […] of specific airway conductance (sGaw) under the condition without anesthesia. The sGaw value just before the administration of test comopound was measured and the value is referred to as 100. Test compound was suspended in 1% HPMC (hydroxymethylpropylcellulose mfd. by Shinetsu Chemical), and was administered orally 30 minutes before the exposure with the antigen. Then, sGaw value was measured in each points until 7 hours after the exposure with the antigen.

In the next data set the test system is contact hypersensitivity. As to the kind of experiment: Contact hypersensitivity model in mouse (atopic dermatitis model). The conditions noted are these: po, 2 mg/Kg p.o., 30 minutes before causal induction, 24 hours, read-out: Control % (intumescence of the pinna, untreated = 100). Type of data set: in vivo. The method, then: [Contact hypersensitivity model in mouse (Atopic dermatisis model)]
Test was conducted by referring to the method as described in "HIFU (a Japanese journal of dermatology)" Vol. 35, Supplemental Issue No. 15, pp. 96-106, published on March 1993.
CBA/J strain mice of 6-8 week age were used as the test animals (6-8 mice in one group). The mouse was sensitized by coating 150 μl of 5% of picryl chloride [dissolved in a mixture of acetone with olive oil (1:4)] on the shaved portion of skin in the back of mouse. […] 24 Hours after the causal induction, the effect for inhibiting contact hypersensitivity performed by the test compounds were evaluated by referring to the action for inhibiting intumescence of the pinna as an indication. The test compound was orally administered 30 minutes before the causal induction.
The following compounds were used for the test.
1) Compounds of the Present Invention:
(Dosage: 20 mg/Kg p.o., which is 7-10 times larger amount of dosages for compounds of the present invention)
The value obtained from the sensitization test without administration of the test compound was referred to as 100, and by comparing with the values obtained from the sensitization test with administration of the test compound was referred to "% control" values.

For the molecule `COCc1cc(=O)n2ncc(-c3ccc(Sc4ccccc4)cc3)c2[nH]1` [Example 1, 4,7-dihydro-5-methoxymethyl-7-oxo-3-(4-phenylthiophenyl)pyrazolo[1,5-a]pyrimidine], the activity at 100 µM in data set [1] (1 × 10^-4 M) turned out to be 5.1%. Further, the activity at 10 µM in data set [1] (1 × 10^-5 M) came to 59.9%. Further, the activity at 1 µM in data set [1] (1 × 10^-6 M) was 120%. Also, the viability at 24 h, 10 µM in data set [2] (1 × 10^-5 M) was determined as 126%. In addition, in data set [2] (1 × 10^-6 M), the viability at 24 h, 1 µM stood at 98.1%. Also, the viability at 24 h, 0.1 µM in data set [2] (1 × 10^-7 M) worked out at 108%. In the data set on late asthmatic response, the “AUC (4-7 hours) of sGaw reaction” value worked out at 32.8 ± 9.2. Further, the response vs control in vivo at 2 mg/kg in the data set on contact hypersensitivity stood at 53.7%.

The record behind these values is patent US6197774A, “Pyrimidine derivative” (Otsuka Pharmaceutical Co., Ltd., priority 1997, dated 2001).
